Assay [1] deals with T1, DUSP1 (Homo sapiens, UniProt P28562).
T1 construct: endogenous protein in human PC3 prostate cancer cells, detected by Western blot (Abcam ab61201)
T1 sequence (P28562 1-367): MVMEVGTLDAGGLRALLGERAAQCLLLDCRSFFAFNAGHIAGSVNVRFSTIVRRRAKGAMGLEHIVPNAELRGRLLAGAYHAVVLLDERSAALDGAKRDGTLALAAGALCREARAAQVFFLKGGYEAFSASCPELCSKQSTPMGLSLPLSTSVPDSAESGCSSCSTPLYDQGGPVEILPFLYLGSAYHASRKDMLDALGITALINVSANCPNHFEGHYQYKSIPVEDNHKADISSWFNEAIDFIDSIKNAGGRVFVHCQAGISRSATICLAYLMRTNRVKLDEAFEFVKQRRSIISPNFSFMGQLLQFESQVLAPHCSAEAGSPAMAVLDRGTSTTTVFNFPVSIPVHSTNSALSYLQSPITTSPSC
The assay is described as follows: cellular thermal shift assay (CETSA), Western blot. It counts as cell-based. The note with it: PC3 cells treated 2 h with 0.01-100 µmol/L; heated at 53 °C for 3 min. (In general: In western blotting, separated proteins are transferred to a membrane and probed.)

Assay [2] concerns the target T2, TNFSF9 (Homo sapiens, UniProt P41273).
T2 construct: endogenous protein in human PC3 prostate cancer cells, detected by Western blot (Abcam ab68185)
The assay is described as follows: cellular thermal shift assay (CETSA), Western blot. It counts as cell-based. The conditions noted are these: PC3 cells treated 2 h with 0.01-100 µmol/L; heated at 53 °C for 3 min.

T2 sequence (P41273 whole entry): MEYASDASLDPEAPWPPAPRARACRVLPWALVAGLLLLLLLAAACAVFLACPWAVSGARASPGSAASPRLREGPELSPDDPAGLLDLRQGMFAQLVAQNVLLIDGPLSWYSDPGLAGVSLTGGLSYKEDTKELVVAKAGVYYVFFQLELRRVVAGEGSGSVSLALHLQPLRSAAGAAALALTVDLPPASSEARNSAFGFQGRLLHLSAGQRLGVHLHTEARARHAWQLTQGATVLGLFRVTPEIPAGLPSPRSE

Regarding `CCN(CC)CCOc1ccc(C[C@H](NC(=O)c2ccc(OCc3ccccc3)cc2)C(=O)N[C@H](CO)Cc2ccccc2)cc1` [HXL131], the “cellular thermal shift assay (CETSA), Western blot” value in assay [1] was “HXL131 could stably bind DUSP1 and TNFSF9 proteins”; in assay [2], “HXL131 could stably bind DUSP1 and TNFSF9 proteins”.

Source of the values: PMC9504056, “A Novel L-Phenylalanine Dipeptide Inhibits the Growth and Metastasis of Prostate Cancer Cells via Targeting DUSP1 and TNFSF9” (International Journal of Molecular Sciences, 2022).
